Experimental data as given in ChEMBL document CHEMBL4020759, “Sulfoximines as ATR inhibitors: Analogs of VE-821” (2017).
Active and inactive are the calls of the source. The calls are words filed in the database; no cut-off is given here.

What was measured:
DU-145 = experiment: Growth inhibition of human DU145 cells assessed as cell growth at 10 uM incubated for 48 hrs by sulforhodamine B assay; format: functional; details: DU-145, 48 h, read-out: Activity
HCC 2998 = experiment: Growth inhibition of human HCC2998 cells assessed as cell growth at 10 uM incubated for 48 hrs by sulforhodamine B assay; format: functional; details: HCC 2998, 48 h, read-out: Activity
[1] = biological target: Serine/threonine-protein kinase ATR (Homo sapiens) (UniProt Q13535); experiment: Inhibition of ATR in human U2OS cells assessed as reduction in hydroxyurea-induced Chk-1 phosphorylation at Ser345 residue at 10 uM preincubated for 1 hr followed by hydroxyurea challenge measured after 1 hr by Western blot analysis; format: cell-based
Chain of Serine/threonine-protein kinase ATR (Homo sapiens) (Q13535 whole entry, looked up): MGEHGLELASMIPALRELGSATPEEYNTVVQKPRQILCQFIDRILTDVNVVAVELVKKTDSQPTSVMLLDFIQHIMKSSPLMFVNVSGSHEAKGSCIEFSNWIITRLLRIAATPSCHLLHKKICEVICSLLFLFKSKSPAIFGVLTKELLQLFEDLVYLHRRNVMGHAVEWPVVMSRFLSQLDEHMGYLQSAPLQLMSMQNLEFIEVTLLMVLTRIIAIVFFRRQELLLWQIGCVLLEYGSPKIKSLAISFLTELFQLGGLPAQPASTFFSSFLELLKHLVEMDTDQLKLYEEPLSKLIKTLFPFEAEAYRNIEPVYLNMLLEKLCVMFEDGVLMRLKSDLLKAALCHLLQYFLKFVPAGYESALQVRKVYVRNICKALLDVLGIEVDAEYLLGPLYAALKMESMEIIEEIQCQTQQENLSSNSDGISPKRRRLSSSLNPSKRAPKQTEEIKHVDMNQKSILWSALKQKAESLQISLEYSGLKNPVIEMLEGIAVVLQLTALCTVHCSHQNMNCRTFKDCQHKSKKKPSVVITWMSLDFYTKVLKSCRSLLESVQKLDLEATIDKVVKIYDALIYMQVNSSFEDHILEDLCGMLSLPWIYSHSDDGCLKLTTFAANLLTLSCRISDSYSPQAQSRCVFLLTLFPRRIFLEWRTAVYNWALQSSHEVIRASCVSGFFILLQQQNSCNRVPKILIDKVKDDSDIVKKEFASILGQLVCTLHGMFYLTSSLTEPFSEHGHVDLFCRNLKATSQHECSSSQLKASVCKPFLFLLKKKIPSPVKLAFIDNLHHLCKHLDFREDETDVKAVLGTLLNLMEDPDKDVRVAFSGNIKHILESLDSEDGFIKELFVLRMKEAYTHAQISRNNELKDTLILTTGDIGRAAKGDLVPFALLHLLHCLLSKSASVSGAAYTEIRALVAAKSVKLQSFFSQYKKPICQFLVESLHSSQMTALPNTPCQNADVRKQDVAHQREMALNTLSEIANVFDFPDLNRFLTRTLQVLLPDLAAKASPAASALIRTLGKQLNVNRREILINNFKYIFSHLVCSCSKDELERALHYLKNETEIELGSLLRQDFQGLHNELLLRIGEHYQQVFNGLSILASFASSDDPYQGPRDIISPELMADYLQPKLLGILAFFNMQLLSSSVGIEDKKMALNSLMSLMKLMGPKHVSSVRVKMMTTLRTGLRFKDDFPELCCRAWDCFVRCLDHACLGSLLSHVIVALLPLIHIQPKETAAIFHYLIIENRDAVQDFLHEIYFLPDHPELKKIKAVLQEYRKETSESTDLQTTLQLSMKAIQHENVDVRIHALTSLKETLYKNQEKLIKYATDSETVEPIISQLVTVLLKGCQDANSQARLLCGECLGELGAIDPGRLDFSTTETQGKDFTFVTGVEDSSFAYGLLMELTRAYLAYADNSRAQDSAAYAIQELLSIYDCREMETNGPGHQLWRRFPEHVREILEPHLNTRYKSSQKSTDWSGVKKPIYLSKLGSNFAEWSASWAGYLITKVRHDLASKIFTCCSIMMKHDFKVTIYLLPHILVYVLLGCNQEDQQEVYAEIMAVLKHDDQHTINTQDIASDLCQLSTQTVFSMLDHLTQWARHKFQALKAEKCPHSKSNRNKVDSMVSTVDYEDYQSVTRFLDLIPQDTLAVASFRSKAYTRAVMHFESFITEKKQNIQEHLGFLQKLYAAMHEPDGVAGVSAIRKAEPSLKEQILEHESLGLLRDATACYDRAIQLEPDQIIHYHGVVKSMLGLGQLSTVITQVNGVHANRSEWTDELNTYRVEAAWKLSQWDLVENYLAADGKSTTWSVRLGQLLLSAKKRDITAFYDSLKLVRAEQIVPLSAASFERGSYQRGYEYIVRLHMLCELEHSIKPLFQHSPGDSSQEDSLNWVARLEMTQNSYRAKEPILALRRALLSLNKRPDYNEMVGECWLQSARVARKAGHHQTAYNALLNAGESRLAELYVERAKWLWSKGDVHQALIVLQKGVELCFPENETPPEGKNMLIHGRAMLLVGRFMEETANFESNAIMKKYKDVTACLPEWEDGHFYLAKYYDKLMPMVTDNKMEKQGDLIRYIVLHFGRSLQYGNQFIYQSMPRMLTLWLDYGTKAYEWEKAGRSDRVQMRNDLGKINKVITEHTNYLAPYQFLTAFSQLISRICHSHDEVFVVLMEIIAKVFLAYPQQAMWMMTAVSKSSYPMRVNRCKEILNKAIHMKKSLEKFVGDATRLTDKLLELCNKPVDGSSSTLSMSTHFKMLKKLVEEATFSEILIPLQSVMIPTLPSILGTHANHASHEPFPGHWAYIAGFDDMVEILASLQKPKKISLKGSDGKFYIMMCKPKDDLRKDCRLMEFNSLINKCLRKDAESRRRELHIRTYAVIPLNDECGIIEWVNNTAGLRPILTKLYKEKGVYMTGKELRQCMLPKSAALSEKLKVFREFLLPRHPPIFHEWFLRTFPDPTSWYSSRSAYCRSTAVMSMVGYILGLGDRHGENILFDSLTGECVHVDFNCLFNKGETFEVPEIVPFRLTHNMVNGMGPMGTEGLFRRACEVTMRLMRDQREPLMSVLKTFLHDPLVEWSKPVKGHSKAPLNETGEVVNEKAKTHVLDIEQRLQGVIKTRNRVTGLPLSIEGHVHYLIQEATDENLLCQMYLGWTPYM

[2] = biological target: Serine-protein kinase ATM (Homo sapiens) (UniProt Q13315); experiment: Inhibition of ATM in human U2OS cells assessed as reduction in etoposide-induced Chk-2 phosphorylation at Thr68 residue at 10 uM preincubated for 1 hr followed by etoposide challenge measured after 20 mins by Western blot analysis; format: cell-based
RPMI-8226 = experiment: Growth inhibition of human RPMI8226 cells assessed as cell growth at 10 uM incubated for 48 hrs by sulforhodamine B assay; format: functional; details: RPMI-8226, 48 h, read-out: Activity
[3] = biological target: Serine/threonine-protein kinase ATR (Homo sapiens) (UniProt Q13535); experiment: Inhibition of ATR in human U2OS cells assessed as reduction in hydroxyurea-induced H2AX phosphorylation at Ser139 residue at 3 to 10 uM preincubated for 1 hr followed by hydroxyurea challenge measured after 2 hrs by Western blot analysis; format: cell-based
[4] = biological target: Serine/threonine-protein kinase ATR (Homo sapiens) (UniProt Q13535); experiment: Inhibition of ATR in human U2OS cells assessed as reduction in hydroxyurea-induced Chk-1 phosphorylation at Ser345 residue preincubated for 1 hr followed by hydroxyurea challenge measured after 2 hrs by Western blot analysis; format: cell-based
BT-549 = experiment: Growth inhibition of human BT549 cells assessed as cell growth at 10 uM incubated for 48 hrs by sulforhodamine B assay; format: functional; details: BT-549, 48 h, read-out: Activity
HT-29 = experiment: Growth inhibition of human HT-29 cells assessed as cell growth at 10 uM incubated for 48 hrs by sulforhodamine B assay; format: functional; details: HT-29, 48 h, read-out: Activity
CCRF-CEM = experiment: Growth inhibition of human CCRF-CEM cells assessed as cell growth at 10 uM incubated for 48 hrs by sulforhodamine B assay; format: functional; details: read-out: Activity
OVCAR-3 = experiment: Growth inhibition of human OVCAR3 cells assessed as cell growth at 10 uM incubated for 48 hrs by sulforhodamine B assay; format: functional; details: OVCAR-3, 48 h, read-out: Activity
KM12 = experiment: Growth inhibition of human KM12 cells assessed as cell growth at 10 uM incubated for 48 hrs by sulforhodamine B assay; format: functional; details: KM12, 48 h, read-out: Activity
M14 = experiment: Growth inhibition of human M14 cells assessed as cell growth at 10 uM incubated for 48 hrs by sulforhodamine B assay; format: functional; details: M14, 48 h, read-out: Activity
[5] = biological target: Serine-protein kinase ATM (Homo sapiens) (UniProt Q13315); experiment: Inhibition of ATM in human U2OS cells assessed as reduction in hydroxyurea-induced H2AX phosphorylation at Ser139 residue at 3 to 10 uM preincubated for 1 hr followed by hydroxyurea challenge measured after 2 hrs by Western blot analysis; format: cell-based
CAKI-1 = experiment: Growth inhibition of human Caki1 cells assessed as cell growth at 10 uM incubated for 48 hrs by sulforhodamine B assay; format: functional; details: CAKI-1, 48 h, read-out: Activity
[6] = biological target: Serine/threonine-protein kinase ATR (Homo sapiens) (UniProt Q13535); experiment: Inhibition of ATR in human U2OS cells assessed as reduction in hydroxyurea-induced Chk-1 phosphorylation at Ser345 residue by measuring ratio of GAPDH level to phosphorylated Chk-1 level at 3 uM preincubated for 1 hr followed by hydroxyurea challenge measured after 2 hrs by Western blot analysis; format: cell-based
UACC-257 = experiment: Growth inhibition of human UACC257 cells assessed as cell growth at 10 uM incubated for 48 hrs by sulforhodamine B assay; format: functional; details: UACC-257, 48 h, read-out: Activity
NCI-H522 = experiment: Growth inhibition of human NCI-H522 cells assessed as cell growth at 10 uM incubated for 48 hrs by sulforhodamine B assay; format: functional; details: NCI-H522, 48 h, read-out: Activity
SNB-75 = experiment: Growth inhibition of human SNB75 cells assessed as cell growth at 10 uM incubated for 48 hrs by sulforhodamine B assay; format: functional; details: SNB-75, 48 h, read-out: Activity
[7] = biological target: Serine/threonine-protein kinase ATR (Homo sapiens) (UniProt Q13535); experiment: Inhibition of ATR in human U2OS cells assessed as reduction in hydroxyurea-induced Chk-1 phosphorylation at Ser345 residue by measuring ratio of GAPDH level to phosphorylated Chk-1 level at 10 uM preincubated for 1 hr followed by hydroxyurea challenge measured after 2 hrs by Western blot analysis; format: cell-based
SF-539 = experiment: Growth inhibition of human SF539 cells assessed as cell growth at 10 uM incubated for 48 hrs by sulforhodamine B assay; format: functional; details: SF-539, 48 h, read-out: Activity
Hs-578T = experiment: Growth inhibition of human Hs578T cells assessed as cell growth at 10 uM incubated for 48 hrs by sulforhodamine B assay; format: functional; details: read-out: Activity
UACC-62 = experiment: Growth inhibition of human UACC62 cells assessed as cell growth at 10 uM incubated for 48 hrs by sulforhodamine B assay; format: functional; details: UACC-62, 48 h, read-out: Activity
SW-620 = experiment: Growth inhibition of human SW620 cells assessed as cell growth at 10 uM incubated for 48 hrs by sulforhodamine B assay; format: functional; details: SW-620, 48 h, read-out: Activity
NCI/ADR-RES = experiment: Growth inhibition of human NCI/ADR-RES cells assessed as cell growth at 10 uM incubated for 48 hrs by sulforhodamine B assay; format: functional; details: read-out: Activity
RXF 393 = experiment: Growth inhibition of human RXF393 cells assessed as cell growth at 10 uM incubated for 48 hrs by sulforhodamine B assay; format: functional; details: RXF 393, 48 h, read-out: Activity
Ramos = experiment: Induction of apoptosis in human Ramos cells assessed as increase PARP-1 cleavage at 10 uM after 48 hrs by Western blot analysis; format: functional, cell-based
U-251 = experiment: Growth inhibition of human U251 cells assessed as cell growth at 10 uM incubated for 48 hrs by sulforhodamine B assay; format: functional; details: U-251, 48 h, read-out: Activity
NCI-H322M = experiment: Growth inhibition of human NCI-H322M cells assessed as cell growth at 10 uM incubated for 48 hrs by sulforhodamine B assay; format: functional; details: read-out: Activity
HCT-15 = experiment: Growth inhibition of human HCT15 cells assessed as cell growth at 10 uM incubated for 48 hrs by sulforhodamine B assay; format: functional; details: HCT-15, 48 h, read-out: Activity
IGROV-1 = experiment: Growth inhibition of human IGROV1 cells assessed as cell growth at 10 uM incubated for 48 hrs by sulforhodamine B assay; format: functional; details: IGROV-1, 48 h, read-out: Activity
[8] = biological target: Serine-protein kinase ATM (Homo sapiens) (UniProt Q13315); experiment: Inhibition of ATM in human U2OS cells assessed as reduction in hydroxyurea-induced Chk-2 phosphorylation at Thr68 residue at 10 uM preincubated for 1 hr followed by hydroxyurea challenge measured after 1 hr by Western blot analysis; format: cell-based

| SMILES | growth at 10 µM (DU-145) [%] | growth at 10 µM (HCC 2998) [%] | inhibition [1] | inhibition [2] | growth at 10 µM (RPMI-8226) [%] | inhibition [3] | inhibition [4] | growth at 10 µM (BT-549) [%] | growth at 10 µM (HT-29) [%] | growth at 10 µM (CCRF-CEM) [%] | growth at 10 µM (OVCAR-3) [%] | growth at 10 µM (KM12) [%] | growth at 10 µM (M14) [%] | inhibition [5] | growth at 10 µM (CAKI-1) [%] | Ratio [6] | growth at 10 µM (UACC-257) [%] | growth at 10 µM (NCI-H522) [%] | growth at 10 µM (SNB-75) [%] | Ratio [7] | other results |
| --- | --- | --- | --- | --- | --- | --- | --- | --- | --- | --- | --- | --- | --- | --- | --- | --- | --- | --- | --- | --- | --- |
| CS(=O)(=NC#N)c1ccc(-c2cnc(N)c(C(=O)Nc3ccccc3)n2)cc1 (centres undefined) | 75.6 | 105 | Active | inactive | 105 | Dose-dependent effect | Dose-dependent effect | 73.4 | 79.9 | 79.9 | 89.4 | 78.2 | 77.7 | inactive | 47.2 | 58.1 | 102 | 86.8 | 56.9 | 43.1 | growth at 10 µM (SF-539): 69%; growth at 10 µM (Hs-578T): 55%; growth at 10 µM (UACC-62): 74.7%; growth at 10 µM (SW-620): 109%; growth at 10 µM (NCI/ADR-RES): 96.9%; growth at 10 µM (RXF 393): 71%; Activity (Ramos): Active; growth at 10 µM (U-251): 68.5%; growth at 10 µM (NCI-H322M): 78.6%; growth at 10 µM (HCT-15): 63.2%; growth at 10 µM (IGROV-1): 59.8%; inhibition [8]: inactive |
| C/S(=N\C#N)c1ccc(-c2cnc(N)c(C(=O)Nc3ccccc3)n2)cc1 (centres undefined) | 80.3 | 109 | Active | inactive | 101 | Dose-dependent effect | Dose-dependent effect | 83.5 | 76.3 | 83.5 | 83.4 | 86.5 | 69.5 | inactive | 53.2 | 40.1 | 106 | 77.2 | 65.2 | 22.5 | growth at 10 µM (SF-539): 85.7%; growth at 10 µM (Hs-578T): 74.6%; growth at 10 µM (UACC-62): 82.2%; growth at 10 µM (SW-620): 85.9%; growth at 10 µM (NCI/ADR-RES): 108%; growth at 10 µM (RXF 393): 62.9%; Activity (Ramos): Active; growth at 10 µM (U-251): 93.2%; growth at 10 µM (NCI-H322M): 71.3%; growth at 10 µM (HCT-15): 64.2%; growth at 10 µM (IGROV-1): 56.9%; inhibition [8]: inactive |
